In PMC8388879 (Antioxidants, 2021):

What was measured:
[1] = target: mushroom TYR (tyrosinase); experiment: dopachrome formation from L-DOPA (A475), commercial mushroom TYR; IC50 […] at […] L-DOPA, […] at […]; also traps dopaquinone; format: biochemical
[2] = target: T1, human TYR (tyrosinase) (Homo sapiens, UniProt P14679); experiment: dopachrome formation (A475) in lysate of HEK293 cells expressing human TYR; […] inhibition at […] (dopaquinone trapping may contribute); format: cell-based
T1 sequence (P14679 19-529): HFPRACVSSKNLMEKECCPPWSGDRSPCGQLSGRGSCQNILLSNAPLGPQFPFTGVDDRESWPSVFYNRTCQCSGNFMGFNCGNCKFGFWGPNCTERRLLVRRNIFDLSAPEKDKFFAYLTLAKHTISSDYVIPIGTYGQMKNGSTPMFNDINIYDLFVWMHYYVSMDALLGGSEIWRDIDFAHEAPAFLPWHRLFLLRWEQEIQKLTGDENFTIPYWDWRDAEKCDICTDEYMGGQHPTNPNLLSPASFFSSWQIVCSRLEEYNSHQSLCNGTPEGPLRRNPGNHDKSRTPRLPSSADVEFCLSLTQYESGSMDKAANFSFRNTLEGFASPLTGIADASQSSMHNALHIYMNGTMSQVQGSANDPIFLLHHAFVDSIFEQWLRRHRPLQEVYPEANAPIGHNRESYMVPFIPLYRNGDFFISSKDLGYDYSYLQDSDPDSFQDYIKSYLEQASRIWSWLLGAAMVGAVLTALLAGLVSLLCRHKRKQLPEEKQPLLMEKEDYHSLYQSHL

IC50 [1] | inhibition at 200 µM [2] | SMILES
115 µM | – | NC(=O)[C@@H](N)CS [C-NH2, L-Cysteinamide]
– | 70% | N[C@@H](CS)C(=O)O [L-cysteine]
